In patent publication US12714706B2, “Methods of treating small cell lung cancer with lurbinectedin formulations” (PHARMA MAR, S.A., priority 2019, dated 2026):

Assay: Analytical results and impurity profile of batches of Form A and Form B of lurbinectedin
Format: physicochemical
Parameters: Impurity RRT approx. 1.10-1.11 / Impurity RRT approx. 1.12 / Impurity RRT approx. 1.27-1.34 / Impurity RRT approx. 1.29-1.30 / Impurity RRT approx. 1.30-1.32 / Impurity RRT approx. 1.28-1.37 / Impurity RRT approx. 2.37 / Impurity RRT approx. 2.41-2.52 / Impurity RRT approx. 2.85 / Impurity RRT approx. 0.66-0.69 / Impurity RRT approx. 0.72-0.76: unit not given here
From the text: Several batches of Form A of lurbinectedin were manufactured by this method.
Several batches of Form B of lurbinectedin were manufactured by this method.

[1] = batches of Form B of lurbinectedin
[2] = impurity profile, batches of Form B
[3] = impurity profile, batches of Form A
[4] = batches of Form A of lurbinectedin

SMILES: COc1ccc2[nH]c3c(c2c1)CCN[C@]31CS[C@@H]2c3c(OC(C)=O)c(C)c4c(c3[C@H](COC1=O)N1[C@@H]2[C@H]2c3c(cc(C)c(OC)c3O)C[C@@H]([C@@H]1O)N2C)OCO4 [Batch 1711182-2]
- Residual Solvents Acetonitrile [1]: <LOQ
- Residual Solvents CH2Cl2 [1]: <LOQ
- Residual Solvents Methanol [1]: <LOQ
- Residual Solvents Pentane [1]: <LOQ
- Residual Solvents Total [1]: 0.0 % w/w
- Total Impurities [1]: 0.3 % Area
- Water Content [1]: 2.4 % w/w
- Impurity RRT aprox 0.72-0.76 [2]: 0.34 % area

SMILES: COc1ccc2[nH]c3c(c2c1)CCN[C@]31CS[C@@H]2c3c(OC(C)=O)c(C)c4c(c3[C@H](COC1=O)N1[C@@H]2[C@H]2c3c(cc(C)c(OC)c3O)C[C@@H]([C@@H]1O)N2C)OCO4 [Batch 1711189-2]
- Residual Solvents Acetonitrile [1]: <LOQ
- Residual Solvents CH2Cl2 [1]: <LOQ
- Residual Solvents Methanol [1]: <LOQ
- Residual Solvents Pentane [1]: <LOQ
- Residual Solvents Total [1]: 0.0 % w/w
- Total Impurities [1]: 0.3 % Area
- Water Content [1]: 2.5 % w/w
- Impurity RRT aprox 0.66-0.69 [2]: 0.05 % area
- Impurity RRT aprox 0.72-0.76 [2]: 0.30 % area

SMILES: COc1ccc2[nH]c3c(c2c1)CCN[C@]31CS[C@@H]2c3c(OC(C)=O)c(C)c4c(c3[C@H](COC1=O)N1[C@@H]2[C@H]2c3c(cc(C)c(OC)c3O)C[C@@H]([C@@H]1O)N2C)OCO4 [Batch 1799069]
- Residual Solvents Acetonitrile [1]: <LOQ
- Residual Solvents CH2Cl2 [1]: <LOQ
- Residual Solvents Methanol [1]: <LOQ
- Residual Solvents Pentane [1]: <LOQ
- Residual Solvents Total [1]: 0.0 % w/w
- Total Impurities [1]: 0.4 % Area
- Water Content [1]: 2.0 % w/w
- Impurity RRT aprox 0.72-0.76 [2]: 0.31 % area
- Impurity RRT aprox 1.10-1.11 [2]: 0.06 % area

SMILES: COc1ccc2[nH]c3c(c2c1)CCN[C@]31CS[C@@H]2c3c(OC(C)=O)c(C)c4c(c3[C@H](COC1=O)N1[C@@H]2[C@H]2c3c(cc(C)c(OC)c3O)C[C@@H]([C@@H]1O)N2C)OCO4 [Batch F02]
- Impurity RRT approx. 0.66-0.69 [3]: 0.19
- Impurity RRT approx. 0.72-0.76 [3]: 0.06
- Impurity RRT approx. 1.10-1.11 [3]: 0.17
- Impurity RRT approx. 1.27-1.34 [3]: 0.12
- Impurity RRT approx. 1.30-1.32 [3]: 0.09
- Impurity RRT approx. 2.41-2.52 [3]: 0.07
- Impurity RRT approx. 2.85 [3]: 0.07

SMILES: COc1ccc2[nH]c3c(c2c1)CCN[C@]31CS[C@@H]2c3c(OC(C)=O)c(C)c4c(c3[C@H](COC1=O)N1[C@@H]2[C@H]2c3c(cc(C)c(OC)c3O)C[C@@H]([C@@H]1O)N2C)OCO4 [Batch G01]
- Impurity RRT approx. 0.66-0.69 [3]: 0.06
- Impurity RRT approx. 0.72-0.76 [3]: 0.11
- Impurity RRT approx. 1.10-1.11 [3]: 0.50
- Impurity RRT approx. 1.30-1.32 [3]: 0.13

SMILES: COc1ccc2[nH]c3c(c2c1)CCN[C@]31CS[C@@H]2c3c(OC(C)=O)c(C)c4c(c3[C@H](COC1=O)N1[C@@H]2[C@H]2c3c(cc(C)c(OC)c3O)C[C@@H]([C@@H]1O)N2C)OCO4 [Batch K02]
- Impurity RRT approx. 0.72-0.76 [3]: 0.09
- Impurity RRT approx. 1.10-1.11 [3]: 0.13
- Impurity RRT approx. 1.29-1.30 [3]: 0.07
- Impurity RRT approx. 1.30-1.32 [3]: 0.19

SMILES: COc1ccc2[nH]c3c(c2c1)CCN[C@]31CS[C@@H]2c3c(OC(C)=O)c(C)c4c(c3[C@H](COC1=O)N1[C@@H]2[C@H]2c3c(cc(C)c(OC)c3O)C[C@@H]([C@@H]1O)N2C)OCO4 [Batch K03]
- Impurity RRT approx. 0.72-0.76 [3]: 0.07
- Impurity RRT approx. 1.10-1.11 [3]: 0.17
- Impurity RRT approx. 1.29-1.30 [3]: 0.37
- Impurity RRT approx. 1.30-1.32 [3]: 0.08

SMILES: COc1ccc2[nH]c3c(c2c1)CCN[C@]31CS[C@@H]2c3c(OC(C)=O)c(C)c4c(c3[C@H](COC1=O)N1[C@@H]2[C@H]2c3c(cc(C)c(OC)c3O)C[C@@H]([C@@H]1O)N2C)OCO4 [Batch K04]
- Impurity RRT approx. 1.10-1.11 [3]: 0.20
- Impurity RRT approx. 1.29-1.30 [3]: 0.11
- Impurity RRT approx. 1.30-1.32 [3]: 0.08

SMILES: COc1ccc2[nH]c3c(c2c1)CCN[C@]31CS[C@@H]2c3c(OC(C)=O)c(C)c4c(c3[C@H](COC1=O)N1[C@@H]2[C@H]2c3c(cc(C)c(OC)c3O)C[C@@H]([C@@H]1O)N2C)OCO4 [Batch M01]
- Impurity RRT approx. 0.72-0.76 [3]: 0.10
- Impurity RRT approx. 1.10-1.11 [3]: 0.08
- Impurity RRT approx. 1.29-1.30 [3]: 0.10
- Impurity RRT approx. 1.30-1.32 [3]: 0.18

SMILES: COc1ccc2[nH]c3c(c2c1)CCN[C@]31CS[C@@H]2c3c(OC(C)=O)c(C)c4c(c3[C@H](COC1=O)N1[C@@H]2[C@H]2c3c(cc(C)c(OC)c3O)C[C@@H]([C@@H]1O)N2C)OCO4 [Batch M02]
- Impurity RRT approx. 0.72-0.76 [3]: 0.08
- Impurity RRT approx. 1.10-1.11 [3]: 0.10
- Impurity RRT approx. 1.28-1.37 [3]: 0.08
- Impurity RRT approx. 1.29-1.30 [3]: 0.17
- Impurity RRT approx. 1.30-1.32 [3]: 0.08

SMILES: COc1ccc2[nH]c3c(c2c1)CCN[C@]31CS[C@@H]2c3c(OC(C)=O)c(C)c4c(c3[C@H](COC1=O)N1[C@@H]2[C@H]2c3c(cc(C)c(OC)c3O)C[C@@H]([C@@H]1O)N2C)OCO4 [Batch M03]
- Impurity RRT approx. 0.72-0.76 [3]: 0.12
- Impurity RRT approx. 1.10-1.11 [3]: 0.11
- Impurity RRT approx. 1.29-1.30 [3]: 0.10
- Impurity RRT approx. 1.30-1.32 [3]: 0.11

SMILES: COc1ccc2[nH]c3c(c2c1)CCN[C@]31CS[C@@H]2c3c(OC(C)=O)c(C)c4c(c3[C@H](COC1=O)N1[C@@H]2[C@H]2c3c(cc(C)c(OC)c3O)C[C@@H]([C@@H]1O)N2C)OCO4 [Batch P01]
- Impurities Total [4]: 0.3 % Area
- Residual Solvents Acetonitrile [4]: 0.01 % w/w
- Residual Solvents Dichloro-methane [4]: <LOQ
- Residual Solvents Ethyl acetate [4]: <LOQ
- Residual Solvents Hexane [4]: <LOQ
- Residual Solvents Methanol [4]: 1.1 % w/w
- Residual Solvents Pentane [4]: 0.2 % w/w
- Residual Solvents Total [4]: 1.4 % w/w
- Water Content [4]: 0.9 % w/w
- Impurity RRT approx. 1.10-1.11 [3]: 0.15
- Impurity RRT approx. 1.29-1.30 [3]: 0.09

SMILES: COc1ccc2[nH]c3c(c2c1)CCN[C@]31CS[C@@H]2c3c(OC(C)=O)c(C)c4c(c3[C@H](COC1=O)N1[C@@H]2[C@H]2c3c(cc(C)c(OC)c3O)C[C@@H]([C@@H]1O)N2C)OCO4 [Batch P02]
- Impurities Total [4]: 0.4 % Area
- Residual Solvents Acetonitrile [4]: <LOQ
- Residual Solvents Dichloro-methane [4]: <LOQ
- Residual Solvents Ethyl acetate [4]: <LOQ
- Residual Solvents Hexane [4]: 0.01 % w/w
- Residual Solvents Methanol [4]: 1.7 % w/w
- Residual Solvents Pentane [4]: 0.2 % w/w
- Residual Solvents Total [4]: 1.9 % w/w
- Water Content [4]: 1.2 % w/w
- Impurity RRT approx. 1.10-1.11 [3]: 0.09
- Impurity RRT approx. 1.29-1.30 [3]: 0.06
- Impurity RRT approx. 1.30-1.32 [3]: 0.13

SMILES: COc1ccc2[nH]c3c(c2c1)CCN[C@]31CS[C@@H]2c3c(OC(C)=O)c(C)c4c(c3[C@H](COC1=O)N1[C@@H]2[C@H]2c3c(cc(C)c(OC)c3O)C[C@@H]([C@@H]1O)N2C)OCO4 [Batch P03]
- Impurities Total [4]: 0.3 % Area
- Residual Solvents Acetonitrile [4]: <LOQ
- Residual Solvents Dichloro-methane [4]: 0.01 % w/w
- Residual Solvents Ethyl acetate [4]: <LOQ
- Residual Solvents Hexane [4]: <LOQ
- Residual Solvents Methanol [4]: 1.6 % w/w
- Residual Solvents Pentane [4]: 0.3 % w/w
- Residual Solvents Total [4]: 1.9 % w/w
- Water Content [4]: 1.6 % w/w
- Impurity RRT approx. 1.12 [3]: 0.07
- Impurity RRT approx. 1.29-1.30 [3]: 0.09

SMILES: COc1ccc2[nH]c3c(c2c1)CCN[C@]31CS[C@@H]2c3c(OC(C)=O)c(C)c4c(c3[C@H](COC1=O)N1[C@@H]2[C@H]2c3c(cc(C)c(OC)c3O)C[C@@H]([C@@H]1O)N2C)OCO4 [Batch P05]
- Residual Solvents AcOEt [1]: <LOQ
- Residual Solvents Acetonitrile [1]: <LOQ
- Residual Solvents CH2Cl2 [1]: <LOQ
- Residual Solvents Hexane [1]: <LOQ
- Residual Solvents Methanol [1]: <LOQ
- Residual Solvents Pentane [1]: <LOQ
- Residual Solvents Total [1]: 0.0 % w/w
- Total Impurities [1]: 0.3 % Area
- Water Content [1]: 2.1 % w/w
- Impurity RRT aprox 0.72-0.76 [2]: 0.24 % area
- Impurity RRT aprox 1.10-1.11 [2]: 0.07 % area
